Results published in publication PMC5362899, “Structural insights into the nucleotide base specificity of P2X receptors” (Scientific Reports, 2017).

Biological target: T1, rat P2X4 rT186V mutant (Rattus norvegicus, UniProt P51577, T186V)
T1 construct: rat P2X4 (NP_113782.1; WT and mutants) were transcribed from pGEMHE plasmids; expressed in transfected cells; host or cells: Xenopus laevis oocytes injected with cRNA from pGEMHE
T1 sequence (P51577 1-388 T186V): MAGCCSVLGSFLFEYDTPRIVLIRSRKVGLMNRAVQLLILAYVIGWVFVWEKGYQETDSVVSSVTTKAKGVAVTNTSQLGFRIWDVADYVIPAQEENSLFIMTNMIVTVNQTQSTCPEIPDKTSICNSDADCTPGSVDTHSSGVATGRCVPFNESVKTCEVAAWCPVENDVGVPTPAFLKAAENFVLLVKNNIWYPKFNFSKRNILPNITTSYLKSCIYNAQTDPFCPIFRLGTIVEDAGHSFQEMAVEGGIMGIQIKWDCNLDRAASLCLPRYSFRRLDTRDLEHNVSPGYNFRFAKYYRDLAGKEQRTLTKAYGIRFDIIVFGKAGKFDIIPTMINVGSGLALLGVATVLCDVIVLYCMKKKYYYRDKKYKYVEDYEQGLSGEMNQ
Test: Two-Electrode Voltage Clamp recording, rat P2X4 T186V mutant in Xenopus oocytes
Format: cell-based
Details: 3 mM ATP, 3 mM CTP (Fig. S3)
Excerpt: To further investigate the functional roles of the residues involved in the base recognition, T189 and R143, we performed an electrophysiological analysis with the rat P2X4, since its electrophysiological properties have been well established. We first assessed the functional role of T189 in zfP2X4 and introduced mutations at the equivalent residue of the rat P2X4 to create three mutants (^rT186A, ^rT186V and ^rT186S; the superscript “r” means rat P2X4). […] Therefore, we examined the ^rWT and the ^rT186S mutant.
The cRNAs encoding zebrafish P2X4 (NP_705939; WT) and rat P2X4 (NP_113782.1; WT and mutants) were transcribed from pGEMHE plasmids, using a mMessage mMachine® T7 ULTRA kit (Ambion, Huntingdon, Cambridgeshire, UK). Xenopus laevis oocytes were prepared, and RNA (100 ng for zebrafish P2X4, and 20 ng for rat P2X4) was injected into the oocytes. The oocytes were incubated at 18 °C in Barth’s solution, containing 88 mM NaCl, 1 mM KCl, 2.4 mM NaHCO3, 10 mM HEPES, 0.33 mM Ca(NO3)2, 0.41 mM CaCl2, and 0.82 mM MgSO4, pH 7.4, supplemented with 50 μg/ml gentamicin, and were used for recording after 2–3 days. […] Oocytes were held at −70 mV with a bath-clamp amplifier (OC-725C, Warner Co., USA), and macroscopic currents were recorded and analyzed using the pClamp 10 software (Molecular Devices, USA)[33][34]. We measured n = 4 for zebrafish P2X4 data and n = 7–9 for rat P2X4 data. […]

| Compound | nucleotide-evoked currents |
| --- | --- |
| Nc1ncnc2c1ncn2[C@@H]1O[C@H](COP(=O)(O)OP(=O)(O)OP(=O)(O)O)[C@@H](O)[C@H]1O [ATP, Adenosine 5-triphosphate] | no ATP- and CTP-evoked currents were detected |
| Nc1ccn([C@@H]2O[C@H](COP(=O)(O)OP(=O)(O)OP(=O)(O)O)[C@@H](O)[C@H]2O)c(=O)n1 [CTP] | no ATP- and CTP-evoked currents were detected |
